Data on two molecules can be found in patent US20040019118A1, “NMDA receptor antagonists and their use in inhibiting abnormal hyperphosphorylation of microtubule associated protein tau” (priority 2002, published 2004).

The structures appear in SMILES notation. Entries after “also recorded” stand apart in the source; their conditions may differ.

One experiment has as its system CaMKII. Put plainly: CaMKII activity in extracts of treated hippocampal slice cultures. The experiment is classed as cell-based, rat. The protocol: (§1) Organotypic cultures of rat hippocampal slices were prepared from 20-30 day old Wistar rats and cultured with the interface method as described previously (Stoppini, et al. 1991; Bahr, et al. 1995; Zhongrin, et al. 2000). The rats were anesthetized with ketamine (100 mg/kg body weight) and decapitated and the hippocampi were dissected out and sliced into 400 um coronal sections by a McIllwain tissue chopper. Select slices with uninterrupted bright transparent neuronal layers were plated, 1-3 slices/filter, onto Millicell CM filters (Millipore, Bedford, Mass.). For the first 2 days in vitro (DIV) cultures were maintained in 25% horse serum, 50% Basal Media-Eagle (BEM), 25% Eagle's Balanced Salt Solution (EBSS), 25 mM HEPES, 1 mM glutamine, 28 mM glucose, pH 7.2, at 32° C. in a 5% CO2 humidified atmosphere. The slice cultures were then switched to 25% horse serum, 50% BEM and EBSS modified so that the potassium concentration was 2.66 mM, for another 5 DIV. After 7 DIV, the cultures were maintained in physiological potassium containing 5% horse serum medium at 35° C. for at least 20 days before any treatment was applied. When the slices were treated, the reagents were applied into the culture medium. At different time points, the slices collected with a brush were washed twice in homogenizing buffer (50 mM HEPES, pH 7.0, 10 mM β-merceptoethanol [BME], 1 mM EDTA, 1 mM EGTA, 0.1 mM phenylmethyl sulfonyl fluoride [PMSF], 2.0 mM benzamidine and 2.0 μg/ml each of aprotinin, leupeptin and pepstatin) and homogenized at 4° C. using a Teflon-glass homogenizer. The homogenate was then divided into two parts, one was centrifuged at 16000×g for 15 min and the supernatant was used to assay activities of PP-2A and PP-1. The rest of the homogenate was diluted 1:1 with a phosphatase inhibitor cocktail (20 mM β-glycerophosphate, 2 mM Na3VO4 and 100 mM NaF, pH 7.0) and either used for Western blots or centrifuged at 16000×g for 15 min and the resulting supernatant used to determine the kinase activities.
CaMKII activity was measured in 25 μl of buffer containing 50 mM HEPES, pH 7.5, 10 mM MgCl2, 2.0 mM CaCl2, 10 mM BME, 10 μg/ml calmodulin (CaM), 20 μM syntide (Sigma, St Louis Mo., USA), 0.06 mg/ml slice extract and 200 μM [γ^32P]ATP. The reaction was initiated by adding [γ32p] ATP. After incubation for 10 min at 30° C., 10 μl reaction mixture was removed and spotted on to phosphocellulose membrane. The membrane was then washed five times in 1% phosphoric acid to remove non-protein incorporated ^32P, dried and counted by Cerenkov radiation. The activity of PKA was determined as above except the reaction mixture contained 70 mM NaHPO4, pH 6.8, 14 mM MgCl2, 1.4 mM EDTA, 30 μM malantide (Sigma, St Louis, Mo., USA), 200 μM [γ^32p] ATP and 0.06 mg/ml slice extract.

Another experiment has as its system MAPK. In words: MAPK activity in extracts of treated hippocampal slice cultures. The experiment is classed as cell-based, rat. The protocol:
as §1, with “The” for “Organotypic cultures of rat hippocampal slices were prepared from 20-30 day old Wistar rats and cultured with the interface method as described previously (Stoppini, et al. 1991; Bahr, et al. 1995; Zhongrin, et al. 2000). The”, “For the first 2 days in vitro (DIV) cultures were maintained in 25% horse serum, 50% Basal Media-Eagle (BEM), 25% Eagle's Balanced Salt Solution (EBSS), 25 mM HEPES, 1 mM glutamine, 28 mM glucose, pH 7.2, at 32° C. in a 5% CO2 humidified atmosphere. The slice cultures were then switched to 25% horse serum, 50% BEM and EBSS modified so that the potassium concentration was 2.66 mM, for another 5 DIV.” left out
Immobilized protein G (Pierce, Rockford, Ill.), 20 μl, was mixed in 50 mM Tris, pH 7.4, 150 mM NACl, 10 mM NaF, 1.0 mM Na3VO4, 2.0 mM EGTA, 1 mM PMSF, 5 μg/ml leupeptin, 5 μg/ml aprotinin, 2 μg/ml pepstatin, 25 μg/ml phosphoramidon. After incubation at 4° C. overnight, the mixture was centrifuged and the beads were washed three times. The beads were then resuspended in 50 mM Tris, pH 7.4, containing 10 mM MgCl2. MAPK substrate peptide (UBI, Lake Placid, N.Y.) was employed for the MAPK assay. […]

Another experiment deals with tau. In words: Tau phosphorylation by radioimmuno-dot-blots and 125I-Western blots of slice homogenates. The following applies: 0.3 mM glutamate, 1 h. The experiment is classed as cell-based, rat. As to the method: as §1, with “The” for “Organotypic cultures of rat hippocampal slices were prepared from 20-30 day old Wistar rats and cultured with the interface method as described previously (Stoppini, et al. 1991; Bahr, et al. 1995; Zhongrin, et al. 2000). The”, “For the first 2 days in vitro (DIV) cultures were maintained in 25% horse serum, 50% Basal Media-Eagle (BEM), 25% Eagle's Balanced Salt Solution (EBSS), 25 mM HEPES, 1 mM glutamine, 28 mM glucose, pH 7.2, at 32° C. in a 5% CO2 humidified atmosphere. The slice cultures were then switched to 25% horse serum, 50% BEM and EBSS modified so that the potassium concentration was 2.66 mM, for another 5 DIV.” left out
Triplicate samples of each homogenate were applied to nitrocellulose membrane (Schleicher and Schuell, Keene, N.H.) and dried at 37° C.
In general terms: A western blot detects proteins with antibodies after separation by electrophoresis.

A further experiment concerns the target T1, PP-2A (Rattus norvegicus, UniProt P63331).
T1 construct: from tissue; host or cells: organotypic culture of adult rat hippocampal slices; 16,000xg extract
In words: PP-2A activity in extracts of treated hippocampal slice cultures. The experiment is classed as cell-based. The protocol:
as §1
Activities of PP-2A and PP-1 were assayed towards [^32P] phosphorylase-a as a substrate as described previously (Gong, et al. 1994). The phosphatase activity was assayed in 20 μl of reaction mixture containing 50 mM Tris, pH 7.0, 10 mM BME, 0.1 mM EDTA, 7.5 mM caffeine, 7.5 ng/μl [^32P]phosphorylase-a and 0.06 mg/ml slice culture extract. The reaction was started by adding ^32P-phosphorylase-a. After incubation for 30 min at 30° C., 7 μl of the reaction mixture was spotted on to 31 ETCHR chromatography paper which had been prespotted with 10 μl stop solution (4 mM ATP+20% TCA). Then the ^32p released was separated from the protein-incorporated ^32P by paper chromatography in 5% TCA and 0.2 M NaCl, paper strips dried, cut and counted by Cerenkov radiation. A PP-1 specific inhibitor, inhibitor-1 (Hitken, et al. 1982) was included in the assays for PP-2A activity. PP-1 activity was calculated by subtracting the PP-2A activity from the total phosphorylase-a phosphatase activity (PP-1/PP-2A) assayed in the absence of inhibitor-1.

T1 sequence (P63331 whole entry): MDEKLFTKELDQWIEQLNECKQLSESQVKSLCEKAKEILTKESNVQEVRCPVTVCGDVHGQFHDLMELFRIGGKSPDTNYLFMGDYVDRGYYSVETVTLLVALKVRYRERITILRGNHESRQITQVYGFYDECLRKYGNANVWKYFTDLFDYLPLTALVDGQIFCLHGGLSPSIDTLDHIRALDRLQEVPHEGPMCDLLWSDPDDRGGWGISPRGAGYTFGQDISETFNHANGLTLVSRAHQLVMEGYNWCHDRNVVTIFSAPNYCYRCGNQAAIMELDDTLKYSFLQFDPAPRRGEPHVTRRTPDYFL

Turning to `N[C@@H](CCC(=O)O)C(=O)O` [glutamate], in the experiment with CaMKII (0.3 mM glutamate, 1 h), the “CaMKII activity as % of control” value is listed as roughly 180% and the “change in CaMKII activity” value was “marked increase”. The “change in MAPK activity” value in the experiment on MAPK (0.3 mM glutamate, 1 h) is reported as “did not induce any detectable change; also recorded: not accompanied by any changes; also recorded: without any effect”. The “phosphorylation of tau at Ser-262” value in the experiment on tau is “increased markedly”. Also, the “change in PP-2A activity” value at PP-2A (0.3 mM glutamate, 1 h) is given as “did not induce any detectable change; also recorded: not accompanied by any changes; also recorded: without any effect”.

Consider `C[C@]12N[C@H](Cc3ccccc31)c1ccccc12` [MK801], for which, in the experiment with CaMKII (after 0.3 mM glutamate, fresh medium with or without 10 μM Memantine or 15 μM MK801), the “CaMKII activity after replacement of glutamate” value is given as “restored the CaMKII activity to normal level”. Moreover, the “effect on MAP kinase activity” value in the experiment on MAPK (after 0.3 mM glutamate, 10 μM Memantine or 15 μM MK801) is on record as “no effect”. On PP-2A (after 0.3 mM glutamate 1 h, 10 μM Memantine or 15 μM MK801), the “effect on PP-2A activity” value is recorded as “no effect”.
